Species on record: Rattus norvegicus
Assay: DrugMatrix - Regimen: Daily Repeat
Format: toxicity, organism-based, Sprague-Dawley
Set-up: regimen Daily Repeat, gender Male, age 6-8 weeks
Conditions: in vivo, iv, vehicle 100 % SALINE; for ABSOLUTE BASOPHIL / ABSOLUTE EOSINOPHIL / ABSOLUTE LYMPHOCYTE / ABSOLUTE MONOCYTE / ABSOLUTE SEGMENTED NEUTROPHIL / BASOPHIL / EOSINOPHIL / ERYTHROCYTE COUNT / HEMATOCRIT / HEMOGLOBIN / LEUKOCYTE COUNT / LYMPHOCYTE / MEAN CORPUSCULAR HEMOGLOBIN / MEAN CORPUSCULAR HEMOGLOBIN CONCENTRATION / MEAN CORPUSCULAR VOLUME / MONOCYTE / NEUTROPHIL / NUCLEATED RED BLOOD CELLS / PLATELET COUNT: tissue Blood; for ALANINE AMINOTRANSFERASE / ALBUMIN / ALKALINE PHOSPHATASE / ASPARTATE AMINOTRANSFERASE / BLOOD UREA NITROGEN / CARBON DIOXIDE / CHLORIDE / CHOLESTEROL / CREATINE PHOSPHOKINASE / CREATININE / GLUCOSE / LACTATE DEHYDROGENASE / LIPASE / PHOSPHORUS / POTASSIUM / SODIUM / TOTAL BILIRUBIN / TOTAL PROTEIN / URIC ACID: tissue Plasma
[1] = 23 mg/kg, 120 h, dose level Low, time 5 day
[2] = 487 mg/kg, 72 h, dose level High, time 3 day
[3] = 487 mg/kg, 120 h, dose level High, time 5 day

Nc1ccn([C@@H]2O[C@H](CO)[C@@H](O)[C@@H]2O)c(=O)n1 [CYTARABINE]
ABSOLUTE BASOPHIL [1]: 0 CELLS/uL | ABSOLUTE EOSINOPHIL [1]: 0 CELLS/uL | ABSOLUTE LYMPHOCYTE [1]: 5539 CELLS/uL | ABSOLUTE MONOCYTE [1]: 16.67 CELLS/uL | ABSOLUTE SEGMENTED NEUTROPHIL [1]: 244.33 CELLS/uL | BASOPHIL [1]: 0% | EOSINOPHIL [1]: 0% | ERYTHROCYTE COUNT [1]: 5.12 x10E6/uL | HEMATOCRIT [1]: 33.83% | HEMOGLOBIN [1]: 13.53 G/DL | LEUKOCYTE COUNT [1]: 5.8 x10E3/uL | LYMPHOCYTE [1]: 95% | MEAN CORPUSCULAR HEMOGLOBIN [1]: 26.47 pg | MEAN CORPUSCULAR HEMOGLOBIN CONCENTRATION [1]: 40 G/DL | MEAN CORPUSCULAR VOLUME [1]: 66.2 fL | MONOCYTE [1]: 0.33% | NEUTROPHIL [1]: 4.67% | NUCLEATED RED BLOOD CELLS [1]: 0 /100WBC | PLATELET COUNT [1]: 1095.67 x10E3/uL | ALANINE AMINOTRANSFERASE [1]: 41.67 u/L | ALBUMIN [1]: 4.1 G/DL | ALKALINE PHOSPHATASE [1]: 306.67 u/L | ASPARTATE AMINOTRANSFERASE [1]: 78.33 u/L | BLOOD UREA NITROGEN [1]: 12.67 mg/dL | CARBON DIOXIDE [1]: 26.33 mmol/L | CHLORIDE [1]: 99.33 MEQ/L | CHOLESTEROL [1]: 67.67 mg/dL | CREATINE PHOSPHOKINASE [1]: 261.33 u/L | CREATININE [1]: 0.21 mg/dL | GLUCOSE [1]: 172 mg/dL | LACTATE DEHYDROGENASE [1]: 75 u/L | LIPASE [1]: 11.33 u/L | PHOSPHORUS [1]: 10.17 mg/dL | POTASSIUM [1]: 5.08 MEQ/L | SODIUM [1]: 144.13 MEQ/L | TOTAL BILIRUBIN [1]: 0.17 mg/dL | TOTAL PROTEIN [1]: 5.77 G/DL | URIC ACID [1]: 0.87 mg/dL | ABSOLUTE BASOPHIL [2]: 0 CELLS/uL | ABSOLUTE EOSINOPHIL [2]: 62 CELLS/uL | ABSOLUTE LYMPHOCYTE [2]: 7623.33 CELLS/uL | ABSOLUTE MONOCYTE [2]: 62 CELLS/uL | ABSOLUTE SEGMENTED NEUTROPHIL [2]: 686 CELLS/uL | BASOPHIL [2]: 0% | EOSINOPHIL [2]: 0.67% | ERYTHROCYTE COUNT [2]: 4.4 x10E6/uL | HEMATOCRIT [2]: 28.67% | HEMOGLOBIN [2]: 11.3 G/DL | LEUKOCYTE COUNT [2]: 8.43 x10E3/uL | LYMPHOCYTE [2]: 91.33% | MEAN CORPUSCULAR HEMOGLOBIN [2]: 25.7 pg | MEAN CORPUSCULAR HEMOGLOBIN CONCENTRATION [2]: 39.4 G/DL | MEAN CORPUSCULAR VOLUME [2]: 65.13 fL | MONOCYTE [2]: 0.67% | NEUTROPHIL [2]: 7.33% | NUCLEATED RED BLOOD CELLS [2]: 0 /100WBC | PLATELET COUNT [2]: 1093.33 x10E3/uL | ALANINE AMINOTRANSFERASE [2]: 45.67 u/L | ALBUMIN [2]: 4.07 G/DL | ALKALINE PHOSPHATASE [2]: 302.33 u/L | ASPARTATE AMINOTRANSFERASE [2]: 81.33 u/L | BLOOD UREA NITROGEN [2]: 12 mg/dL | CARBON DIOXIDE [2]: 31 mmol/L | CHLORIDE [2]: 101.67 MEQ/L | CHOLESTEROL [2]: 77.67 mg/dL | CREATINE PHOSPHOKINASE [2]: 242.33 u/L | CREATININE [2]: 0.19 mg/dL | GLUCOSE [2]: 168.33 mg/dL | LACTATE DEHYDROGENASE [2]: 55.33 u/L | LIPASE [2]: 10.67 u/L | PHOSPHORUS [2]: 10.87 mg/dL | POTASSIUM [2]: 5.4 MEQ/L | SODIUM [2]: 145.23 MEQ/L | TOTAL BILIRUBIN [2]: 0.2 mg/dL | TOTAL PROTEIN [2]: 5.93 G/DL | URIC ACID [2]: 0.8 mg/dL | ABSOLUTE BASOPHIL [3]: 0 CELLS/uL | ABSOLUTE EOSINOPHIL [3]: 10 CELLS/uL | ABSOLUTE LYMPHOCYTE [3]: 3604.33 CELLS/uL | ABSOLUTE MONOCYTE [3]: 0 CELLS/uL | ABSOLUTE SEGMENTED NEUTROPHIL [3]: 152.33 CELLS/uL | BASOPHIL [3]: 0% | EOSINOPHIL [3]: 0.33% | ERYTHROCYTE COUNT [3]: 4.2 x10E6/uL | HEMATOCRIT [3]: 26.53% | HEMOGLOBIN [3]: 10.7 G/DL | LEUKOCYTE COUNT [3]: 3.77 x10E3/uL | LYMPHOCYTE [3]: 95.67% | MEAN CORPUSCULAR HEMOGLOBIN [3]: 25.43 pg | MEAN CORPUSCULAR HEMOGLOBIN CONCENTRATION [3]: 40.37 G/DL | MEAN CORPUSCULAR VOLUME [3]: 63.07 fL | MONOCYTE [3]: 0% | NEUTROPHIL [3]: 4% | NUCLEATED RED BLOOD CELLS [3]: 0 /100WBC | PLATELET COUNT [3]: 1216.67 x10E3/uL | ALANINE AMINOTRANSFERASE [3]: 41.67 u/L | ALBUMIN [3]: 4.1 G/DL | ALKALINE PHOSPHATASE [3]: 275.33 u/L | ASPARTATE AMINOTRANSFERASE [3]: 82.33 u/L | BLOOD UREA NITROGEN [3]: 13.33 mg/dL | CARBON DIOXIDE [3]: 26 mmol/L | CHLORIDE [3]: 100.67 MEQ/L | CHOLESTEROL [3]: 71.33 mg/dL | CREATINE PHOSPHOKINASE [3]: 326 u/L | CREATININE [3]: 0.23 mg/dL | GLUCOSE [3]: 159 mg/dL | LACTATE DEHYDROGENASE [3]: 65 u/L | LIPASE [3]: 11 u/L | PHOSPHORUS [3]: 9.23 mg/dL | POTASSIUM [3]: 5.41 MEQ/L | SODIUM [3]: 145.37 MEQ/L | TOTAL BILIRUBIN [3]: 0.2 mg/dL | TOTAL PROTEIN [3]: 5.7 G/DL | URIC ACID [3]: 0.57 mg/dL
